Laboratory results: patent US20250136595A1, “ACYLATED HETEROCYCLIC QUINAZOLINE DERIVATIVES AS INHIBITORS OF ERBB2” (Enliven Inc., priority 2022, published 2025)

Assays:
[1] = biological target: T1, phosphorylated ERBB2 (pERBB2) (Homo sapiens, UniProt P04626); test: Detection of phosphorylated ERBB2 (pERBB2) by ELISA in BT-474 cells; type: cell-based; conditions: four hour incubation with compound
T1 construct: endogenous in cells; host or cells: BT-474
Protocol: BT-474 cells were seeded into a 96-well at 2.0*10^4 cells/100 μl/well. Compounds were dissolved and serially diluted in DMSO. The compounds were then were added, mixed, and incubated for four hours at 37° C., 5% CO2. Compounds were added using four-fold dilutions at final concentrations ranging from 10 μM to 0.01 nM. Following the four hour incubation with compounds, cell lysates were prepared. Plates were centrifuged for 5 min at 3000 RPM, and supernatant was removed from each well. Cells were washed 3 times by resuspension in 150 μl PBS, followed by centrifugation and removal of the supernatant, as above. […] Cells were incubated with lysis buffer for 1 hour at 4° C., and then stored at -80° C. Enzyme-linked immunosorbent assays (ELISA) were performed to measure phosphorylated ERBB2 levels. […] The next day, plates were washed with PBS+0.05% Tween20 (PBST). 150 μl of 5% BSA blocking solution was added for 1 hour at room temperature, with shaking. Plates were washed with PBST. Cell lysates were thawed and 100 μl of lysate was added to the ELISA plate. The plates were incubated for 2 hours at room temperature, with shaking. […] Plates were incubated for 1 hour at room temperature, with shaking. Plates were then washed with PBST, and 100 μl TMB substrate solution (R&D Systems, cat #DY999) was added. Plate were incubated in the dark for 20 minutes at room temperature. 50 μl of Stop solution (R&D Systems, cat #DY994) (50 μl) was added to each well and mixed. Optical density at 450 nm was read on an EnSpire plate reader (Perkin Elmer). The remaining kinase activity by calculated using the following formula: % Relative activity=100×([…]). The low and high control values (“LC” and “HC”) were generated from lysate from wells without cells or with cells treated with 0.1% DMSO, respectively.

Ba/F3 ERBB2 YVMA = Ba/F3 ERBB2 YVMA (Homo sapiens, UniProt P04626, DUP772-775, cells depend on it); test: Cell viability assay (CellTiter Glo) in Ba/F3 cells engineered to express ERBB2 YVMA; type: cell-based, mouse; conditions: Ba/F3 cells expressing human ERBB2 YVMA mutant, 72 hours, % viability, read-out: Ba/F3 ERBB2 YVMA IC50
Ba/F3 ERBB2 YVMA, sequence (P04626 with tags, fused parts or gaps DUP772-775): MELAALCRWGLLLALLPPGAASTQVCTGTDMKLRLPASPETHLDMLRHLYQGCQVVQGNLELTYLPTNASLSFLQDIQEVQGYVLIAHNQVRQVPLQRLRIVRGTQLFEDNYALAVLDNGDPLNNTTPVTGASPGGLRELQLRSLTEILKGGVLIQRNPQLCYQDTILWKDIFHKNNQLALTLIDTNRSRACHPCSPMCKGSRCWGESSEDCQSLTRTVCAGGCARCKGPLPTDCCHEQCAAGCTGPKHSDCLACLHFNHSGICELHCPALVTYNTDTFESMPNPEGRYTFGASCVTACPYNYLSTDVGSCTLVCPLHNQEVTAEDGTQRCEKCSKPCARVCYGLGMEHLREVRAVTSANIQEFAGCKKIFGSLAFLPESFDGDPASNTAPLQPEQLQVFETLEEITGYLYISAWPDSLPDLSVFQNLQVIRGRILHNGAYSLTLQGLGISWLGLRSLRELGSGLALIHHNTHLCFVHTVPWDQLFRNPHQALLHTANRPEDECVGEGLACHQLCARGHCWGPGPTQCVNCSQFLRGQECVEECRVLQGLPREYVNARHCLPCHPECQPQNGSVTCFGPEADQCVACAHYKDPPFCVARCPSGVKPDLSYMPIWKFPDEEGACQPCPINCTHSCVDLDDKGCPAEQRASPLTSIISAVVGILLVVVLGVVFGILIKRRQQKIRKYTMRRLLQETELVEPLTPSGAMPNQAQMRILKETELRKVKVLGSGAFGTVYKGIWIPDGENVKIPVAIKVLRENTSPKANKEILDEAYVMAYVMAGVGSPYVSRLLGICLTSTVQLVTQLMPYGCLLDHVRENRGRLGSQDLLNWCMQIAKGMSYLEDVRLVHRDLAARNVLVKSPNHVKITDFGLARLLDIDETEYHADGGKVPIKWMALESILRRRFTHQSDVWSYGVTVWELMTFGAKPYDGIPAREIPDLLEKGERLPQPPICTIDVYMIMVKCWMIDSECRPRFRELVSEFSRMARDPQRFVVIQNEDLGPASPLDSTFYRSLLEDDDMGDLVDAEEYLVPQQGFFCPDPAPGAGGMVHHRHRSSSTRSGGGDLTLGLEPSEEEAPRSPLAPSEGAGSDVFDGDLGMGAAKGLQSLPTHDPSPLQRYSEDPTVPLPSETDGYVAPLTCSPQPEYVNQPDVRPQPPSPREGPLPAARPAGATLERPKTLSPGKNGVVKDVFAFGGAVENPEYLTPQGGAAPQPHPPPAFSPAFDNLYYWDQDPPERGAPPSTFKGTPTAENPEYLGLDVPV
Protocol: Cells were treated with compounds, and cell viability was measured as a metric of kinase inhibition.
The Ba/F3 cell line is IL-3-dependent mouse cell line derived from the C3H mouse strain. Ba/F3 cell lines were engineered to express human ERBB2 or EGFR kinases, rendering the cells IL-3 independent. The lines were generated via retroviral transduction utilizing a Moloney murine leukemia virus (MMLV) promoter, and constructs are stably integrated into the cell genome. The sequences of the ERBB2 and EGFR genes used were NCBI Reference Sequences NM_004448.3 and NM_005228.3, respectively.
Similarly, Ba/F3 cell lines engineered to express EGFR, ERBB2, or ERBB2 mutants were grown, harvested, counted and seeded at 3000 cells per well in 96-well plates for the data sets shown in Tables B3-B4. A subset of wells contained media only (low control, “LC”).
Table B1 provides the growth media and number of cells seeded per well for the each cell line.
Compounds were dissolved in DMSO and serially diluted. Serially-diluted compound or a DMSO only control (high control, “HC”) was added to the plated cells in each well. […] The final proportion of DMSO never exceeded 0.1%.
Plates were placed in a 37° C., 5% CO2 incubator for 72 hours. Plates were then removed from the incubator and equilibrated for 15 minutes at room temperature. 40 μl of CellTiter Glo reagent (Promega) was added to measure the relative level of metabolically active cells by quantifying intracellular ATP concentrations. Plates were incubated for 30 minutes at room temperature, and luminescence was measured. Percent viability was normalized to a vehicle control only using the following formula: % viability=100×(Lumsample−LumLC)/(LumHC−LumLC). Graphical curves were fitted using a nonlinear regression model with a sigmoidal dose response.

[2] = biological target: T2, phosphorylated EGFR (pEGFR) (Homo sapiens, UniProt P00533); test: Detection of phosphorylated EGFR (pEGFR) in EGF-stimulated A431 cells (AlphaLISA); type: cell-based; conditions: A431 cells (10% FBS), 4 hours incubation, EGF 30 ng/mL for 10 minutes
T2 construct: performed to measure phosphorylated EGFR levels using A431 cells; endogenous in cells; host or cells: A431
T2 sequence (P00533 25-1210): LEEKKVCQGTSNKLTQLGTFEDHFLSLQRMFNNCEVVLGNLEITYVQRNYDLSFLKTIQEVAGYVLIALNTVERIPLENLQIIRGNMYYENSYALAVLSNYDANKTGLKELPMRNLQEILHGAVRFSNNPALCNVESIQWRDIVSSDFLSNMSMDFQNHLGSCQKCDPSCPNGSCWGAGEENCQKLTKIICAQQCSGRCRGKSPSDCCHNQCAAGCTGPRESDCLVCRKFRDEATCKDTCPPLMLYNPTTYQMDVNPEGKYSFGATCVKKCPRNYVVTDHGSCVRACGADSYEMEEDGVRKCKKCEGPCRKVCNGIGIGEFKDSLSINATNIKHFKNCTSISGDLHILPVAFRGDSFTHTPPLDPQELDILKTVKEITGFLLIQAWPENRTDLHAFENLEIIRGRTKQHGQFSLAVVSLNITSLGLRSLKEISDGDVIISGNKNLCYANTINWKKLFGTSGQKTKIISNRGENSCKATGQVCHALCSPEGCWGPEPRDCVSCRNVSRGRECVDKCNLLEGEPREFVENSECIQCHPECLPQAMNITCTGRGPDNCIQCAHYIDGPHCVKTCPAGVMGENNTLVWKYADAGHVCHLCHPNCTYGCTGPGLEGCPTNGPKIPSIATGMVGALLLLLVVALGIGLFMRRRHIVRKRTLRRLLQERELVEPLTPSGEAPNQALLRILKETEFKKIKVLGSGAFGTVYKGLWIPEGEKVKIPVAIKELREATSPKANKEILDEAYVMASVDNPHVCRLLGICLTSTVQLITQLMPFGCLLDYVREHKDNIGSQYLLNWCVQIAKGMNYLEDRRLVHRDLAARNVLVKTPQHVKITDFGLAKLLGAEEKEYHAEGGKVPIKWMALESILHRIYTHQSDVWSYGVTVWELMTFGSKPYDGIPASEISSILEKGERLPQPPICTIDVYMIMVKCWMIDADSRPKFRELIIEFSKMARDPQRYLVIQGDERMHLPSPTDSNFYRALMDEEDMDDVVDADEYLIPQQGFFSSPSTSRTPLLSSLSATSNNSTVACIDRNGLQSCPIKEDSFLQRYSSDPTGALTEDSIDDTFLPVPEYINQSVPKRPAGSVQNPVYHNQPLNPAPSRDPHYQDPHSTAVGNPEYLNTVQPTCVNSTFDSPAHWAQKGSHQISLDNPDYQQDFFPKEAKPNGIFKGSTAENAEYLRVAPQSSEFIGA
Protocol: Enzyme-linked immunosorbent assays (ELISA) were performed to measure phosphorylated EGFR levels using A431 cells (10% FBS). A431 (1.0*10^4 cells/40 μl/well) cells were seeded in 384 well. Compounds were dissolved in DMSO, serially diluted in DMSO and then were added, mixed, and incubated for 4 hours at 37° C., 5% CO2. Following the 4-hours incubation, cells were stimulated for 10 minutes with EGF (Invitrogen, cat #PHG0311) at a final concentration of 30 ng/mL in the incubator. The media was aspirated and cells were lysed in 10 μL lysis buffer with protease and phosphatase inhibitors (PerkinElmer, cat #ALSU-PEGFR-A50K). The plates were placed on a shaker for 5 minutes and then incubated for 30 min at 4° C. for complete lysis. The lysate was transferred to an Optiplate (Perkin Elmer, cat #6007290).
Acceptor mix (PerkinElmer, cat #ALSU-PEGFR-A50K) was prepared just before use and 5 μL was dispensed to all the wells, followed by a 1.5-2 h incubation at room temperature in dark. The donor mix (PerkinElmer, cat #ALSU-PEGFR-A50K) was prepared under low light conditions prior to use and 5 μl of donor mix was added to all the wells under subdued lighting or green filters. The plates were placed on a shaker for 5 min, sealed, and incubated overnight at room temperature in dark. Plates were read on the Envision (PerkinElmer) using standard AlphaLISA settings.
The percentage of inhibition on EGFR phosphorylation was calculated following equation: % Inhibition=100×(LumHC−LumSample)/(LumHC−LumLC). The low and high controls (LC/HC) are generated from lysate from wells with cells treated with DMSO or […] Staurosporine (BioAustralis, cat #BIA-S1086), […]. IC50 values were calculated by fitting the Curve using XLfit (v5.3.1.3), equation 201: Y=Bottom+ (Top−Bottom)/(1+10^((LogIC50−X)*HillSlope)).

T1 sequence (P04626 23-1255): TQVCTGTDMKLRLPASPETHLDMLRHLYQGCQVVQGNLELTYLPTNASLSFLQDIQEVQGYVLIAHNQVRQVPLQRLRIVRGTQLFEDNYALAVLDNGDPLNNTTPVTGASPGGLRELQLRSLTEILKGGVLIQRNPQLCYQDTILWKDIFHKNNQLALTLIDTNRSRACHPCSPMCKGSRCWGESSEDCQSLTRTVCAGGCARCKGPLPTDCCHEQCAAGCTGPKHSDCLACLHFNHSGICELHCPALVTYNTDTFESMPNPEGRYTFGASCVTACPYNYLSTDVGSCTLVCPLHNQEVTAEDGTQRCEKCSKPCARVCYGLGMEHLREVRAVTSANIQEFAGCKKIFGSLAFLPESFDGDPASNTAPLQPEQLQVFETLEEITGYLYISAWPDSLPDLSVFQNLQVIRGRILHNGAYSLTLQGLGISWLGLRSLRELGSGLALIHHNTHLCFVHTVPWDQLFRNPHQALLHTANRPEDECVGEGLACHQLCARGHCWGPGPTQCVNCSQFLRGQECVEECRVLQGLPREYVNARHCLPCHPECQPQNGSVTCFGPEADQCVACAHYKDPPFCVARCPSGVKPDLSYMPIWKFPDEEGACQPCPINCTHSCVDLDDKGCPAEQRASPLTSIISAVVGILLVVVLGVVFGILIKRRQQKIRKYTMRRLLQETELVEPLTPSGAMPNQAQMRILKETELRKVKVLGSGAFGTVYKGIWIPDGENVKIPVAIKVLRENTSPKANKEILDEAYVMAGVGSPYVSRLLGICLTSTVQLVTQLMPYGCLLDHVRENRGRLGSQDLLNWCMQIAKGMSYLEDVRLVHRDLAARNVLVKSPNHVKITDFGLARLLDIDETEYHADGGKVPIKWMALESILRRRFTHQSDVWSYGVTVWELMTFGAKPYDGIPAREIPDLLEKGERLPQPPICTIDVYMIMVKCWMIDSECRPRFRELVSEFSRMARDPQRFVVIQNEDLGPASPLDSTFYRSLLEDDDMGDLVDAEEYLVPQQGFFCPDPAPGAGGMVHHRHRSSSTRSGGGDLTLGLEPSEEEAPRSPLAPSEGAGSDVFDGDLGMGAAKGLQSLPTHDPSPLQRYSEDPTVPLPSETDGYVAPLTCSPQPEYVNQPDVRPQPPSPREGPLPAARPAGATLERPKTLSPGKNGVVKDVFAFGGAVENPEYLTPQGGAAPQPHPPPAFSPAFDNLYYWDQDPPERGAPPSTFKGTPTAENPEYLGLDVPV

Structure (SMILES) | IC50 [1] [nM] | IC50 [2] [nM] | GI50 (Ba/F3 ERBB2 YVMA) [nM]
C=CC(=O)N1CC2CC1CN2c1ccc2ncnc(Nc3ccc(Oc4ccn5ncnc5c4)c(C)c3)c2n1 (stereo not drawn) [Compound 6, 1-(5-{4-[(3-methyl-4-{[1,2,4]triazolo[1,5-a]pyridin-7-yloxy}phenyl)amino]pyrido[3,2-d]pyrimidin-6-yl}-2,5-diazabicyclo[2.2.1]heptan-2-yl)prop-2-en-1-one] | 13.9 | 134 | 5.65
Cc1cc(Nc2ncnc3ccc(N4CCN(C(=O)/C=C/CN(C)C)CC4C)c(F)c23)ccc1Cc1ccn2ncnc2c1 (stereo not drawn) [Compound 94, (E)-1-(4-(4-((4-([1,2,4]triazolo[1,5-a]pyridin-7-ylmethyl)-3-methylphenyl)amino)-5-fluoroquinazolin-6-yl)-3-methylpiperazin-1-yl)-4-(dimethylamino)but-2-en-1-one] | 160 | > 10000 | > 500
C=CC(=O)N1CCN(c2cc3c(Nc4ccc(O[C@@H]5CCCOC5)c(C)c4)ncnc3cn2)CC1 [Compound 100, 1-{4-[4-({3-methyl-4-[(3R)-oxan-3-yloxy]phenyl}amino)pyrido[3,4-d]pyrimidin-6-yl]piperazin-1-yl}prop-2-en-1-one] | 63.7 | 337 | 98.5
C=CC(=O)N1CCN(c2ccc3ncnc(Nc4ccc(Oc5ccc6c(c5)ncn6C)c(C)c4)c3c2)C[C@H]1C [Compound 58, 1-[(2R)-2-methyl-4-[4-({3-methyl-4-[(1-methyl-1,3-benzodiazol-5-yl)oxy]phenyl}amino)quinazolin-6-yl]piperazin-1-yl]prop-2-en-1-one] | 31.4 | 2460 | 24.1
C=CC(=O)N1CCC(Nc2ccc3ncnc(Nc4ccc(Oc5ccn6ncnc6c5)c(C)c4)c3n2)CC1 [Compound 40, 1-[4-({4-[(3-methyl-4-{[1,2,4]triazolo[1,5-a]pyridin-7-yloxy}phenyl)amino]pyrido[3,2-d]pyrimidin-6-yl}amino)piperidin-1-yl]prop-2-en-1-one] | 6.1 | 22 | 5.81
C=CC(=O)N1CCCC2(C1)CN(c1ccc3ncnc(Nc4ccc(Oc5ccn6ncnc6c5)c(C)c4)c3n1)C2 [Compound 46, 1-(2-{4-[(3-methyl-4-{[1,2,4]triazolo[1,5-a]pyridin-7-yloxy}phenyl)amino]pyrido[3,2-d]pyrimidin-6-yl}-2,6-diazaspiro[3.5]nonan-6-yl)prop-2-en-1-one] | 45.3 | > 10000 | 24.6
CC#CC(=O)N1CC2CCC(C1)N2c1ccc2ncnc(Nc3ccc(Oc4ccc5c(c4)ncn5C)c(C)c3)c2n1 [Compound 75, 1-(8-(4-((3-methyl-4-((1-methyl-1H-benzo[d]imidazol-5-yl)oxy)phenyl)amino)pyrido[3,2-d]pyrimidin-6-yl)-3,8-diazabicyclo[3.2.1]octan-3-yl)but-2-yn-1-one] | 42.3 | 4060 | 8.19
C=CC(=O)N1CCN(c2ccc3ncnc(Nc4ccc(Oc5ccc6scnc6c5)c(C)c4)c3n2)CC1 [Compound 119, 1-(4-(4-((4-(benzo[d]thiazol-5-yloxy)-3-methylphenyl)amino)pyrido[3,2-d]pyrimidin-6-yl)piperazin-1-yl)prop-2-en-1-one] | 26 | 97 | 4.67
C=CC(=O)N1CCN(c2ccc3ncnc(Nc4ccc(Oc5ccn6ncnc6c5)c(C)c4)c3n2)CC1 [Compound 4, 1-(4-{4-[(3-methyl-4-{[1,2,4]triazolo[1,5-a]pyridin-7-yloxy}phenyl)amino]pyrido[3,2-d]pyrimidin-6-yl}piperazin-1-yl)prop-2-en-1-one] | 8.44 | 371 | 8.19
C=CC(=O)N1CCN(c2ncc3ncnc(Nc4ccc(Oc5ccn6ncnc6c5)c(C)c4)c3n2)[C@@H](C)C1 [Compound 70, 1-[(3S)-3-methyl-4-{8-[(3-methyl-4-{[1,2,4]triazolo[1,5-a]pyridin-7-yloxy}phenyl)amino]pyrimido[5,4-d][1,3]diazin-2-yl}piperazin-1-yl]prop-2-en-1-one] | 16.3 | 2320 | 9.96

Further lines, with some results ahead:

IC50 [1] [nM] | IC50 [2] [nM] | Structure (SMILES) | GI50 (Ba/F3 ERBB2 YVMA) [nM]
18.1 | 1060 | C=CC(=O)N1CCN(c2cc3c(Nc4ccc(Oc5ccc6c(c5)ncn6C)c(C)c4)ncnc3cn2)CC1 [Compound 106, 1-{4-[4-({3-methyl-4-[(1-methyl-1,3-benzodiazol-5-yl)oxy]phenyl}amino)pyrido[3,4-d]pyrimidin-6-yl]piperazin-1-yl}prop-2-en-1-one formic acid] | 10.3
56.9 | 346 | C=CC(=O)N1CC[C@H](Oc2ccc3ncnc(Nc4ccc(Oc5ccc6c(c5)ncn6C)c(C)c4)c3n2)C1 [Compound 49, 1-[(3S)-3-{[4-({3-methyl-4-[(1-methyl-1,3-benzodiazol-5-yl)oxy]phenyl}amino)pyrido[3,2-d]pyrimidin-6-yl]oxy}pyrrolidin-1-yl]prop-2-en-1-one] | 15.7
17 | 476 | C=CC(=O)N1CC2CC(C1)N2c1ccc2ncnc(Nc3ccc(Oc4ccn5ncnc5c4)c(C)c3)c2n1 [Compound 5, 1-(6-{4-[(3-methyl-4-{[1,2,4]triazolo[1,5-a]pyridin-7-yloxy}phenyl)amino]pyrido[3,2-d]pyrimidin-6-yl}-3,6-diazabicyclo[3.1.1]heptan-3-yl)prop-2-en-1-one] | 18
50.6 | > 10000 | C=CC(=O)N1CCN(c2cc3c(Nc4ccc(Cc5ccn6ncnc6c5)c(C)c4)ncnc3cn2)C[C@H]1C [Compound 52, (R)-1-(4-(4-((4-([1,2,4]triazolo[1,5-a]pyridin-7-ylmethyl)-3-methylphenyl)amino)pyrido[3,4-d]pyrimidin-6-yl)-2-methylpiperazin-1-yl)prop-2-en-1-one] | 120
29.7 | > 10000 | C=CC(=O)N1CCC[C@@H](Nc2ccc3ncnc(Nc4ccc(Oc5ccn6ncnc6c5)c(C)c4)c3n2)C1 [Compound 42, 1-[(3R)-3-({4-[(3-methyl-4-{[1,2,4]triazolo[1,5-a]pyridin-7-yloxy}phenyl)amino]pyrido[3,2-d]pyrimidin-6-yl}amino)piperidin-1-yl]prop-2-en-1-one] | 219
